{"source": "paper PMC10587737", "about": "“Dracorhodin targeting CMPK2 attenuates inflammation: A novel approach to sepsis therapy” (Clinical and Translational Medicine, 2023)", "key": {"CMPK2^Lys265 protein": {"biological_target": "T1, CMPK2^Lys265 protein (Homo sapiens, UniProt Q5EBM0, K265A)", "T1 construct": "the N‐terminus was truncated by 22 amino acids; 6xHis (C); made in house; host or cells: FreeStyle 293-F cells (pTT5 vector)", "T1 sequence (Q5EBM0 22-449 K265A)": "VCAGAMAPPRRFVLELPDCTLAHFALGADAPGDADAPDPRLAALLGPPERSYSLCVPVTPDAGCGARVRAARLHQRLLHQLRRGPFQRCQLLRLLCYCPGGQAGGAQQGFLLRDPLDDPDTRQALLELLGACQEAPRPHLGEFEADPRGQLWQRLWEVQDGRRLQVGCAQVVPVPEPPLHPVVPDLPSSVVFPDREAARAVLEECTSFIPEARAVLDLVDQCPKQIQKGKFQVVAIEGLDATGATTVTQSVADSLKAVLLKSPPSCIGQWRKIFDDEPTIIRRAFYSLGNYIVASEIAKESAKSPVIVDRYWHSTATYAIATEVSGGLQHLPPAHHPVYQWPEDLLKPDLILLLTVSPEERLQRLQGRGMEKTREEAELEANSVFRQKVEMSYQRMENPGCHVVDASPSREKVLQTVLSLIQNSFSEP", "assay": "MST binding to CMPK2 Lys265 mutant", "details": "Lys265 mutated", "procedure": "(§1) Human CMPK2 and K265, K282 and K320 mutated CMPK2 cDNA were cloned and inserted into the pTT5 vector, and the constructed plasmid was amplified by the DH5α strain. The C‐terminus of the cDNA was fused with a 6× His tag, and the N‐terminus was truncated by 22 amino acids (Figure 1B–F and Supporting Information Figure S5A,B). When the free‐style 293‐F cells reached the proper density, approximately 1 mg of expression plasmid was premixed with 3 mg polyethylenimine in UltraFectin medium and incubated prior to transfection. This mixture was then added to the appropriate amount of fresh cell culture medium, incubated for 30 min and collected after 48 h.\n(§2) The MST assay is an emerging technique used to quantitatively elucidate binding. The binding parameter between CMPK2 and DP was measured using MST on a Monolith NT.115 system (Germany). CMPK2 was fluorescently labeled with the Monolith NT Protein Labeling Kit RED (L018, NanoTemper Technologies GmbH, Munich, Germany) according to the manufacturer’s instructions. The Monolith NT.115 system was used with Monolith NT.115 standard capillaries (M0-K022). MST assay buffer was used to dilute the labeled CMPK2 to 2 μM. […] The binding and dissociation constants (Kd) were evaluated and calculated using M0-Affinity analysis software version 2.1.3 (Nano Temper Technologies) for the ligand."}, "CMPK2^Lys282 protein": {"biological_target": "CMPK2^Lys282 protein", "assay": "MST binding to CMPK2 Lys282 mutant", "design": "species or system human", "details": "Lys282 mutated", "procedure": "as §1, §2"}, "CMPK2^Lys320 protein": {"biological_target": "CMPK2^Lys320 protein", "assay": "MST binding to CMPK2 Lys320 mutant", "design": "species or system human", "details": "Lys320 mutated", "procedure": "as §1, §2"}, "[1]": {"test_system": "siCmpk2/dsCmpk2-transduced BMDMs", "assay": "Inflammasome readouts in siCmpk2- or dsCmpk2-transduced BMDMs", "format": "cell-based, mouse", "procedure": "BMDMs were plated in 6-well plates at a density of 1.5×10^6 cells per well and then transfected with 150 nM siRNA using Lipofectamine RNAiMAX according to the manufacturer’s guidelines (Invitrogen). siRNA sequences were chemically synthesized by GenePharma, and the negative control siRNA was also from GenePharma. The siRNA sequences were as follows: sicmpk2 5’-[…]-3’.\nFull-length human CMPK2 was cloned and inserted into a pcDNA3.1(+) vector (Invitrogen) for expression in mouse BMDMs. An HA tag was placed after the C-terminal of CMPK2. Mouse BMDMs were transfected using Fugene HD Transfection Reagent (Promega) with the CMPK2 plasmid. BMDMs were plated in 6-well plates at a density of 1.5×10^6 cells per well and then transfected with 6 μg dsDNA using FuGENE according to the manufacturer’s guidelines (Promega)."}, "[2]": {"test_system": "LPS-induced septic shock in Cmpk2^∆DMye mice", "assay": "LPS-induced septic shock in myeloid-specific Cmpk2-deficient mice", "format": "in vivo, mouse", "details": "DP 40 mg/kg, LPS 20 mg/kg, 72 h", "procedure": "The C57BL/6J mice used in the studies were obtained from the Model Animal Research Center of Shanghai University of Traditional Chinese Medicine. All animals were housed under a 12-hr light/dark cycle at 22-24°C with unrestricted access to food and water for the duration of the experiment except during fasting tests. Myeloid-specific Cmpk2-deficient (Cmpk2^DMye) mice were donated by Prof. Huazhang An from Shandong Provincial Key Laboratory for Rheumatic Disease and Translational Medicine. All animal experiments were approved by the Regional Ethics Committee of Shanghai University of Traditional Chinese Medicine.\nSepsis was induced by intraperitoneal injection of 8- to 12-week-old gender-matched wild-type mice with LPS (E. coli O111:B4, Sigma-Aldrich) at 20 mg per kg body weight. Mouse survival was monitored every 1 h after injection for a total of 72 h. In a separate experiment, mice were treated with the same dose of LPS, and immune sera were collected 6 h post injection. Then, the abdominal cavity was washed with PBS. The levels of IL-1β and TNF-α in serum and peritoneal lavage ﬂuid were determined by ELISA. Then, the livers, kidneys and lungs were immediately removed and washed in ice-cold PBS. They were fixed with 4% paraformaldehyde, which was used for hematoxylin-eosin (H&E), Masson staining and Sirius red staining."}, "CMPK2": {"biological_target": "T2, CMPK2 (Homo sapiens, UniProt Q5EBM0)", "T2 sequence (Q5EBM0 22-449)": "T1 sequence (Q5EBM0 22-449 K265A) with A244K", "assay": "Ultrafiltration-affinity mass spectrometry screening (FC, CMPK2 vs BSA)", "format": "binding", "design": "the N‐terminus was truncated by 22 amino acids; 6xHis (C); made in house; host or cells: FreeStyle 293-F cells (pTT5 vector)", "description": "The purified kinase CMPK2 was incubated with the six cocktails for 30 min at 37°C in a suitable buffer solution. In the compound cocktail, each compound concentration was 1 μM, and the concentration of the kinase CMPK2 was set at 5 μM. Each of the above incubation solutions was added to a 0.5 mL 10 kDa ultrafiltration tube (Amicon μltra‐0.5 10K Centrifugal Filter Devices, Millipore), and four experimental replicates were conducted for each CMPK2 and BSA pair. The 10 kDa ultrafiltration tube was centrifuged with the incubation solution at 13 000 × g for 20 min at 4°C. Centrifugation was stopped when the solution volume was approximately 100 μL, and then the mixture was washed five times with cold ammonium acetate (150 mM, pH 7.5). For affinity selection, 100 μL of the mixture was transferred after centrifugation and rinsed into a new eppendorf tube. […] The protein precipitate was discarded and the liquid was concentrated with a N2 stream. The residue was re‐dissolved in 50% methanol before injection. BSA samples were processed in a manner parallel to that of CMPK2 samples.\nSample measurement was detected by using an UHPLC instrument (Shimadzu) combined with a Triple TOF 5600^+ MS (SCIEX). Chromatographic separation was conducted with an Acquity UPLC BEH C18 column (1.7 μm, 2.1 × 100 mm, Waters) at a temperature maintained at 40°C and a flow rate of 0.3 mL/min, with mobile phases of water–0.1% formic acid (A) and acetonitrile (B). The linear gradient elution profile was as follows: 0−2 min, 5% B; 2−12 min, 5−30% B; 12−25 min, 30−90% B; 25−30 min, 90% B; and re‐equilibration for 5 min. Subsequently, the gradient was recovered to the initial conditions at the final 1 min. Whether it was a test sample or a quality control (QC) sample, each injection volume was 5 μL.\nBriefly, the chromatographic peaks of each bound ligand were extracted using PeakView with identification criteria of precise mass measurement deviation and retention time tolerance of 5 ppm and 0.1 min, respectively. The MS response of each ligand was represented with the integrated peak area extracted by the corresponding extract ion chromatogram. The effective hits were selected on the basis of fold change (FC) value ≥ 2, p value < .05 and cyclic voltammetry (CV) ≤ 30% and were identified as candidate ligands of CMPK2. By extracting the m/z of individual standards from the acquired MS/MS spectrum, the decimal point of RT was used to distinguish the ambiguous compound peaks in the cocktails.\nThe experimental samples were injected into a UHPLC‐Q‐TOF‐MS system. First, total ion chromatograms (TIC) reflected the general overview of all samples (Supporting Information Figure S2A). […] Among the groups, each sample with a CV more than 30% was considered an abnormal sample and was not considered in the subsequent statistical analysis. In addition, the p value of each sample between the groups was calculated by MetaboAnalyst 5.0, and the significance of differences was determined. In the ultrafiltration‐affinity mass spectrometry profiling, we calculated FC, which is defined as the ratio of the MS response between the compound detected in the CMPK2 and BSA incubation system (Supporting Information Figure S2C,D). […] To select small‐molecule ligands with strong affinity, we determined the screening criteria to be FC ≥ 2. Affinity MS analysis generated a set of raw data, and the compounds that met the pre‐judgment criteria (FC ≥ 2, p < .05) were selected as compound hits (Supporting Information Figure S2)."}}, "note": "Residue numbers refer to the chain shown, from its start."}
{"smiles": "COc1c2ccc(-c3ccccc3)oc-2cc(=O)c1C", "note": "[compound 73, Dracohodin perochlorate]", "values": [{"measurement": "binding (Kd by MST)", "setting": "CMPK2^Lys265 protein", "value": "no binding"}, {"measurement": "binding (Kd by MST)", "setting": "CMPK2^Lys282 protein", "value": "no binding"}, {"measurement": "binding (Kd by MST)", "setting": "CMPK2^Lys320 protein", "value": "no binding"}, {"measurement": "effect on TNF-α in supernatant", "setting": "[1]; CMPK2-overexpressing BMDMs", "value": "negligible"}, {"measurement": "inhibitory effect on IL-1β", "setting": "[1]; CMPK2-overexpressing BMDMs", "value": "reversed"}, {"measurement": "release of TNF-α in supernatant", "setting": "[1]; WT/siCmpk2 BMDMs, DP 12 or 1 h, ATP/Nigericin", "value": "no significant change"}, {"measurement": "ASC oligomerization", "setting": "[1]; siCmpk2-transduced BMDMs, different concentrations of DP", "value": "not significantly altered"}, {"measurement": "survival rate", "setting": "[2]", "value": "did not further improve"}, {"measurement": "binding between dUMP and CMPK2", "setting": "CMPK2; affinity mass spectrometry competition, Figure S3C", "value": "interfered"}, {"measurement": "FC Negative", "setting": "CMPK2; negative ion mode, ratio of MS response CMPK2 vs BSA", "value": 3.00}, {"measurement": "FC Positive", "setting": "CMPK2; positive ion mode, ratio of MS response CMPK2 vs BSA", "value": 4.32}]}
